Assay results taken from US10201587B2, “Methods of inhibiting and treating biofilms using glycopeptide antibiotics” (MELINTA THERAPEUTICS, INC., priority 2008, dated 2019).

How the values were obtained:
MSSA ATCC 29213 [1] = conditions: absence of 0.002% polysorbate-80; cited from earlier work
S. aureus ATCC 29213 [2] = assay: Membrane depolarization, DiSC3(5) fluorescence; type: cell-based; conditions: 30 min
Protocol: Bacteria were grown overnight in CAMHB and sub-cultured the following day in CAMHB to exponential phase (OD600≈0.25). Exponential- and stationary-phase cells were washed in membrane assay buffer with or without 5 mM glucose, respectively, and resuspended at an OD600=0.25. DiSC3(5) was added to a final concentration of 1.5 μM and the solution was incubated in the dark at ambient temperature for 30 minutes to allow loading of the fluorescent dye into cell membranes. After the loading period, cells were diluted 50-fold (OD600=0.005) in depolarization buffer with or without glucose for exponential- or stationary-phase cells, respectively. Assays were initiated by the addition of antimicrobial agents over a range of concentrations and were monitored in real time by fluorescence spectroscopy (λex=612, λem=665) for a period of 30 minutes. […] Experiments were repeated three times and produced similar results; results from one assay are presented.

[3] = test system: vancomycin (VAN)-susceptible Enterococcus faecalis ATCC 29212 (VSE); assay: MBEC plate biofilm eradication; type: cell-based; conditions: 24 h of drug challenge
From the text: (§1) The following strains were used for in vitro biofilm studies: vancomycin (VAN)-susceptible Enterococcus faecalis ATCC 29212 (VSE), VAN-resistant E. faecalis ATCC 51299 (VanB VRE), E. faecium ATCC 51559 (VanA VRE), S. epidermidis ATCC 12228 and the slime-producing strain S. epidermidis ATCC 35984. Biofilms were established in MBEC™ Physiology & Genetics Assay plates (Innovotech; Edmonton, Canada).

[4] = test system: S. epidermidis ATCC 12228; assay: MBEC plate biofilm eradication; type: cell-based; conditions: single agents
From the text: as §1

[5] = test system: VAN-resistant E. faecalis ATCC 51299 (VanB VRE); assay: MBEC plate biofilm eradication; type: cell-based; conditions: 24 h of drug challenge
From the text: as §1

[6] = test system: E. faecium ATCC 51559 (VanA VRE); assay: MBEC plate biofilm eradication; type: cell-based; conditions: 24 h of drug challenge
From the text: as §1

S. aureus ATCC 29213 [7] = assay: Short duration (2 h) time-kill in membrane assay buffer; type: cell-based
Protocol: Short duration (2 h) time-kill studies were performed in membrane assay buffer (see below) to characterize the killing of S. aureus ATCC 29213 under conditions used in the membrane depolarization and permeability assays. Exponential- and stationary-phase S. aureus ATCC 29213 cells were diluted to an OD600=0.005 (approx 10^6 CFU/mL) in membrane assay buffer (10 mM HEPES-C1, pH 7.5, 50 μg/mL CaCl2) with or without 5 mM glucose, respectively. Experiments were initiated by the addition of antimicrobial agents at the indicated concentrations and bacteria were enumerated by serial-dilution plating.

[8] = test system: Staphylococcus epidermidis ATCC 35984; assay: Prevention of in vitro biofilm formation on coated silicone tubing; type: cell-based; conditions: silicone tubing incubated overnight in 20 mg/ml solution; inoculum 10^5 or 10^7 CFU/ml
Protocol: Silicone tubing (0.040″ inner-diameter by 0.085″ outer-diameter by 0.023″ wall thickness; VWR International) was cut into 1 cm lengths then cut longitudinally in half. Cut tubing pieces were sterilized overnight in 99% ethanol. Tubing pieces were rinsed in 2 ml of sterile water then incubated overnight at room temperature in 20 mg/ml of either oritavancin or chloroeremomycin solution in water. Control tubing pieces were incubated in water as described. The following day, tubing pieces were rinsed in 2 ml of water then incubated with Staphylococcus epidermis ATCC 35984 at an inoculum density of either 10^5 CFU/ml or 10^7 CFU/ml in tryptic soy broth at 37° C. with rotation at 150 rpm in a rotational incubator. Tubing pieces were rinsed in 2 ml of sterile physiologic saline and bacteria in the biofilm formed on the silicone tubing were recovered by sonicating the tubing pieces in 1 ml of sterile physiologic saline in a sonicating water bath (VWR Aquasonic model 550D). Recovered bacteria were enumerated by serial dilution plating.

VRSA VRS5 = assay: Time-kill in nutrient-depleted CAMHB; type: cell-based, S. aureus
Protocol: (§2) Nutrient-depleted CAMHB from each respective strain was prepared by 3 rounds of inoculation of CAMHB with exponential-phase bacteria, incubation overnight at 37° C. with rotation (225 rpm) and centrifugation (8000×g for 30 minutes) to remove bacteria. After the final round of inoculation, growth and centrifugation, the pH of the nutrient-depleted CAMHB was adjusted to pH=7.0 and the spent medium was filter-sterilized using a […] membrane (Corning Incorporated, Corning, N.Y.).
(§3) Nutrient-depleted CAMHB containing diluted antimicrobial agents was inoculated with stationary-phase bacteria from overnight cultures of the S. aureus strains at approximately 10^7 colony-forming units (CFU)/mL. Other experiments compared the killing of stationary- and exponential-phase S. aureus ATCC 29213 when inoculated into nutrient-depleted CAMHB containing the test agents. For assays involving daptomycin, nutrient-depleted CAMHB was supplemented with 50 μg/ml CaCl2 (8). All time-kill studies were performed in 96-well deep-well plates at 37° C. with rotation (225 rpm) in a total volume of 750 μL. Bacteria were enumerated by serial-dilution plating. Bacteriostatic and bactericidal activity of the antimicrobial agents were defined as a reduction in viable cell counts of <3 or ≥3 log at 24 hours relative to the starting inoculum, respectively (33). Experiments were repeated at least three times and produced similar results; results from one experiment are presented.

MSSA ATCC 29213 [9] = assay: Time-kill in nutrient-depleted CAMHB; type: cell-based, S. aureus; conditions: stationary-phase, estimated free-trough concentration 0.5 μg/mL, 24 hours
Protocol: as §2, §3

MRSA ATCC 33591 = assay: Time-kill in nutrient-depleted CAMHB; type: cell-based, S. aureus; conditions: stationary-phase, free-trough concentration 0.5 μg/mL, 24 hours
Protocol: as §2, §3

CN[C@H](CC(C)C)C(=O)N[C@H]1C(=O)N[C@@H](CC(N)=O)C(=O)N[C@H]2C(=O)N[C@H]3C(=O)N[C@H](C(=O)N[C@H](C(=O)O)c4cc(O)cc(O)c4-c4cc3ccc4O)[C@H](O[C@H]3C[C@](C)(N)[C@@H](O)[C@H](C)O3)c3ccc(c(Cl)c3)Oc3cc2cc(c3O[C@@H]2O[C@H](CO)[C@@H](O)[C@H](O)[C@H]2O[C@H]2C[C@](C)(NCc3ccc(-c4ccc(Cl)cc4)cc3)[C@@H](O)[C@H](C)O2)Oc2ccc(cc2Cl)[C@H]1O [Oritavancin, N-(4-(4-chlorophenyl)benzyl)A82846B]
CLSI quality control range of MIC (MSSA ATCC 29213 [1]): 0.5 to 2 µg/mL | dissipation of membrane potential (DiSC3(5) fluorescence) (S. aureus ATCC 29213 [2]; exponential-phase cells): occurred in a concentration-dependent manner | dissipation of membrane potential (DiSC3(5) fluorescence) (S. aureus ATCC 29213 [2]; stationary-phase cells): occurred in a concentration-dependent manner | MBEC [3]: 2 to 4 mg/L | MBEC [4]: 2 to 4 mg/L | MBEC [5]: 2 to 4 mg/L | MBEC [6]: 2 to 4 mg/L | reduction in CFU (S. aureus ATCC 29213 [7]; exponential-phase cells, within 5 minutes, 16 μg/mL): 4 log | reduction in CFU (S. aureus ATCC 29213 [7]; stationary-phase cells, within the 2-hour time period, oritavancin at fCmax 800, daptomycin at fCmax): approximately 1 log | activity on a coated surface against biofilm formation [8]: significant activity | activity at the 24-hour time point (VRSA VRS5; stationary-phase inoculum, fCmax 800 (16 μg/mL)): bactericidal (Bacteriostatic and bactericidal activity of the antimicrobial agents were defined as a reduction in viable cell counts of <3 or ≥3 log at 24 hours relative to the starting inoculum, respectively) | decrease in viable cell counts (VRSA VRS5; stationary-phase, fCmax, 24 hours): approx 2.2 log | reduction in viable cell counts (VRSA VRS5; stationary-phase, free-trough concentration 0.5 μg/mL, 24 hours): approx 1.2 log | reduction in viable cell counts (MSSA ATCC 29213 [9]): approx 2.9 log | reduction in viable cell counts (MRSA ATCC 33591): approx 0.4 log
